Our source for the EC50 values is ChEMBL document CHEMBL1148899, “Activity of macrocyclic jatrophane diterpenes from Euphorbia kansui in a TrkA fibroblast survival assay” (2004).

Experiment [1] deals with NIH3T3. Briefly: Survival effect on NGF-dependent mouse NIH/3T3 cells expressing TrkA assessed as cell viability after 2 days by MTT assay. The format is functional. As to conditions: NIH3T3, 48 h, read-out: ED50 (the source's name).
Experiment [2] concerns NIH3T3. As to the kind of experiment: Survival effect on NGF-dependent mouse NIH/3T3 cells expressing TrkB assessed as cell viability after 2 days by MTT assay. The note with it: NIH3T3, 48 h, read-out: ED50 (the source's name). The format is functional.

Values after ≈ are worked out from the molar mass of the structure shown. A value given as a limit tells only on which side of the number the result lay.

Regarding `C=C1[C@H](OC(C)=O)[C@@H](OC(=O)c2ccccc2)[C@@H](OC(=O)c2cccnc2)C(C)(C)[C@H]2O[C@](O)([C@H](C)C2=O)[C@@]2(OC(C)=O)C[C@H](C)[C@H](OC(C)=O)[C@@H]2[C@H]1OC(C)=O` [KANSUININ D], the EC50 in the experiment on NIH3T3 [1] was 0.55 µg/mL (≈ 0.693 µM); in the experiment on NIH3T3 [2], 0.22 µg/mL (≈ 0.277 µM).

Turning to `C=C1[C@H](OC(C)=O)[C@@H](OC(=O)c2ccccc2)[C@@H](OC(=O)c2ccccc2)C(C)(C)[C@H]2O[C@@H]2[C@@H](C)C(=O)[C@@]2(OC(C)=O)C[C@H](C)[C@H](OC(C)=O)[C@@H]2[C@H]1OC(C)=O` [KANSUININ F], the EC50 in the experiment on NIH3T3 [1] and in the experiment with NIH3T3 [2] was > 50 µg/mL throughout.

For the compound `C=C1[C@H](OC(C)=O)[C@@H](OC(=O)c2ccccc2)[C@@H](OC(C)=O)C(C)(C)[C@H]2O[C@](O)([C@H](C)C2=O)[C@@]2(OC(C)=O)C[C@H](C)[C@H](OC(C)=O)[C@@H]2[C@H]1OC(C)=O` [KANSUININ A], the values for the EC50 in the experiment on NIH3T3 [1] and in the experiment on NIH3T3 [2] were 7.92 µg/mL (≈ 10.8 µM) and 3.28 µg/mL (≈ 4.49 µM), respectively.

Consider `C=C1[C@H](OC(C)=O)[C@@H](OC(=O)c2ccccc2)[C@@H](OC(=O)c2cccnc2)C(C)(C)[C@H]2O[C@@H]2[C@@H](C)C(=O)[C@@]2(OC(C)=O)C[C@H](C)[C@H](OC(C)=O)[C@@H]2[C@H]1OC(C)=O` [KANSUININ E], for which the values for the EC50 in the experiment with NIH3T3 [1] and in the experiment with NIH3T3 [2] were 0.23 µg/mL (≈ 0.296 µM) and > 50 µg/mL, respectively.
